Each molecule was assayed on HBV (assay: HBV infection in HepG2-NTCP cells (HBeAg AlphaLISA in supernatants)). Conditions: Hepatitis B virus, 192 h; HBV infection of HepG2-NTCP cells; HBeAg in supernatants at day 8 post infection; read-out: Cellular EC50.
Format: cell-based
Outline: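 Readout was day-8 supernatant HBeAg by AlphaLISA, with EC50 set against DMSO controls and binned A<0.1 μM, B 0.1-1 μM, C>1 μM. Compounds were added 2 h before HBV (2000 GE/cell, 4% PEG, 0.5% DMSO) to HepG2-NTCP A3 cells; from day 1 medium held 2.5% DMSO.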

Row | Compound | EC50
1 | CN1[C@H](C2CCC2)CN(c2ccccc2)c2cc(Oc3ccccc3F)c(-c3ccc(F)c(C(=O)O)c3)cc2S1(=O)=O [Example 463] | < 100 nM
2 | CO[C@H]1C[C@H](N2C[C@@H](CC(C)C)N(C)S(=O)(=O)c3cc(-c4ccc(F)c(C(=O)O)c4)c(Oc4ccccc4F)cc32)C1 [Example 472] | 100 to 1000 nM
3 | CC(C)C[C@@H]1CN(CC(C)C)c2cc(Oc3ccc(F)cc3)c(-c3ccc(F)c(C(=O)O)c3)cc2S(=O)(=O)N1C [Example 475, (R)-2-fluoro-5-(7-(4-fluorophenoxy)-3,5-diisobutyl-2-methyl-1,1-dioxido-2,3,4,5-tetrahydrobenzo[f][1,2,5]thiadiazepin-8-yl)benzoic acid] | 100 to 1000 nM
4 | CN1[C@H](C2CCCCC2)CNc2cc(OCC(F)(F)F)c(-c3ccc(Cl)c(C(=O)O)c3)cc2S1(=O)=O [Example 477] | 100 to 1000 nM
5 | COCCOc1cc2c(cc1-c1ccc(NC(=O)OCc3ccccc3)c(C(=O)O)c1)S(=O)(=O)N(C)[C@H](C1CCCCC1)CN2c1ccccc1 [Example 478, (R)-2-(((benzyloxy)carbonyl)amino)-5-(3-cyclohexyl-7-(2-methoxyethoxy)-2-methyl-1,1-dioxido-5-phenyl-2,3,4,5-tetrahydrobenzo[f][1,2,5]thiadiazepin-8-yl)benzoic acid] | < 100 nM
6 | COCCOC(=O)Nc1ccc(-c2cc3c(cc2OCCOC)N(c2ccccc2)C[C@@H](C2CCCCC2)N(C)S3(=O)=O)cc1C(=O)O [Example 479, (R)-5-(3-cyclohexyl-7-(2-methoxyethoxy)-2-methyl-1,1-dioxido-5-phenyl-2,3,4,5-tetrahydrobenzo[f][1,2,5]thiadiazepin-8-yl)-2-(((2-methoxyethoxy)carbonyl)amino)benzoic acid] | < 100 nM
7 | CN1[C@H](C2CCCCC2)CN(c2ccccc2)c2cc(OCC(F)(F)F)c(-c3ccc(NC(=O)OCc4ccccc4)c(C(=O)O)c3)cc2S1(=O)=O [Example 480] | < 100 nM
8 | CN1[C@H](C2CCCCC2)CN(c2ccccc2)c2cc(OCc3ccsc3)c(-c3ccc(NC(=O)OCc4ccccc4)c(C(=O)O)c3)cc2S1(=O)=O [Example 481] | < 100 nM
9 | CN1[C@H](C2CCCCC2)CN(c2ccccc2)c2cc(OC3CCC3)c(-c3ccc(NC(=O)OC4CCC4)c(C(=O)O)c3)cc2S1(=O)=O [Example 482] | < 100 nM
10 | CN1[C@H](C2CCCCC2)CN(c2ccccc2)c2cc(OC3CC(C)(C)C3)c(-c3cc(F)c(C(=O)O)s3)cc2S1(=O)=O [Example 483, (R)-5-(3-cyclohexyl-7-(3,3-dimethylcyclobutoxy)-2-methyl-1,1-dioxido-5-phenyl-2,3,4,5-tetrahydrobenzo[f][1,2,5]thiadiazepin-8-yl)-3-fluorothiophene-2-carboxylic acid] | < 100 nM
11 | CN1[C@H](C2CCCCC2)CN(c2ccccc2)c2cc(OC3CC4(CCC4)C3)c(-c3cc(F)c(C(=O)O)s3)cc2S1(=O)=O [Example 484] | 100 to 1000 nM
12 | CCCCCCCOc1cc2c(cc1-c1cc(F)c(C(=O)O)s1)S(=O)(=O)N(C)[C@H](C1CCCCC1)CN2c1ccccc1 [Example 485] | < 100 nM
13 | CN1[C@H](C2CCCCC2)CN(c2ccccc2)c2cc(OCc3csc(Cl)c3)c(-c3cc(F)c(C(=O)O)s3)cc2S1(=O)=O [Example 487] | < 100 nM
14 | CN1[C@H](C2CCCCC2)CN(c2ccccc2)c2cc(OCc3cscc3F)c(-c3cc(F)c(C(=O)O)s3)cc2S1(=O)=O [Example 488] | < 100 nM
15 | CN1[C@H](C2CCCCC2)CN(c2ccccc2)c2cc(OCc3ccsc3Cl)c(-c3cc(F)c(C(=O)O)s3)cc2S1(=O)=O [Example 489] | < 100 nM
16 | CCCCC[C@H](C)Oc1cc2c(cc1-c1cc(F)c(C(=O)O)s1)S(=O)(=O)N(C)[C@H](C1CCCCC1)CN2c1ccccc1 [Example 490] | < 100 nM
17 | CCCCC[C@@H](C)Oc1cc2c(cc1-c1cc(F)c(C(=O)O)s1)S(=O)(=O)N(C)[C@H](C1CCCCC1)CN2c1ccccc1 [Example 491] | 100 to 1000 nM
18 | Cc1cc(COc2cc3c(cc2-c2cc(F)c(C(=O)O)s2)S(=O)(=O)N(C)[C@H](C2CCCCC2)CN3c2ccccc2)c(C)s1 [Example 492] | < 100 nM
19 | Cc1cc(COc2cc3c(cc2-c2cc(F)c(C(=O)O)s2)S(=O)(=O)N(C)[C@H](C2CCCCC2)CN3c2ccccc2)cs1 [Example 493] | 100 to 1000 nM
20 | CN1[C@H](C2CCCCC2)CN(c2ccccc2)c2cc(OCc3cscc3Cl)c(-c3cc(F)c(C(=O)O)s3)cc2S1(=O)=O [Example 494] | < 100 nM
21 | CN1[C@H](C2CCCCC2)CN(c2ccccc2)c2cc(OCCOC(C)(C)C)c(-c3cc(F)c(C(=O)O)s3)cc2S1(=O)=O [Example 495] | < 100 nM
22 | CN1[C@H](C2CCCCC2)CN(c2ccccc2)c2cc(OCCOC3CC3)c(-c3cc(F)c(C(=O)O)s3)cc2S1(=O)=O [Example 496] | < 100 nM
23 | CC(C)OCCOc1cc2c(cc1-c1cc(F)c(C(=O)O)s1)S(=O)(=O)N(C)[C@H](C1CCCCC1)CN2c1ccccc1 [Example 497] | < 100 nM
24 | COCCOCCOc1cc2c(cc1-c1cc(F)c(C(=O)O)s1)S(=O)(=O)N(C)[C@H](C1CCCCC1)CN2c1ccccc1 [Example 498] | < 100 nM
25 | COCCOc1cc2c(cc1-c1cc(C)c(C(=O)O)s1)S(=O)(=O)N(C)[C@H](C1CCCCC1)CN2c1ccccc1 [Example 499] | < 100 nM
26 | Cc1nc(COc2cc3c(cc2-c2cc(F)c(C(=O)O)s2)S(=O)(=O)N(C)[C@H](C2CCCCC2)CN3c2ccccc2)sc1C [Example 500] | < 100 nM

The next lines start with the values.

Row | EC50 | Compound
27 | > 1000 nM | CC(C)C[C@@H]1CN(c2ccccc2)c2cc(OC3CN(C)C3)c(-c3ccc(F)c(C(=O)O)c3)cc2S(=O)(=O)N1C [Example 447]
28 | > 1000 nM | CC(C)C[C@@H]1CN(c2ccccc2)c2cc(OC3CCN(C)CC3)c(-c3ccc(F)c(C(=O)O)c3)cc2S(=O)(=O)N1C [Example 448]
29 | > 1000 nM | CC(C)C[C@@H]1CN(c2ccccc2)c2cc(OCC3CCCN3C)c(-c3ccc(F)c(C(=O)O)c3)cc2S(=O)(=O)N1C (stereo partly shown) [Example 449]
30 | > 1000 nM | CC(C)C[C@@H]1CN(c2ccccc2)c2cc(OCC34CCCN3CCC4)c(-c3ccc(F)c(C(=O)O)c3)cc2S(=O)(=O)N1C [Example 450]
31 | > 1000 nM | CC(C)C[C@@H]1CN(c2ccccc2)c2cc(OCCN(C)C)c(-c3ccc(F)c(C(=O)O)c3)cc2S(=O)(=O)N1C [Example 451]
32 | 100 to 1000 nM | CC(C)C[C@@H]1CN(c2ccccc2)c2cc(OC(C)(C)C(F)(F)F)c(-c3ccc(Cl)c(C(=O)O)c3)cc2S(=O)(=O)N1C [Example 452]
33 | < 100 nM | CC(C)C[C@@H]1CN(c2ccccc2)c2cc(OCC(F)(F)F)c(-c3ccc(F)c(C(=O)O)c3)cc2S(=O)(=O)N1C [Example 453]
34 | < 100 nM | CC(C)C[C@@H]1CN(c2ccccc2)c2cc(OC3(C)CCCC3)c(-c3ccc(Cl)c(C(=O)O)c3)cc2S(=O)(=O)N1C [Example 454]
35 | 100 to 1000 nM | CC(C)C[C@@H]1CN(c2ccccc2)c2cc(OC(C)(C)c3ccccc3)c(-c3ccc(Cl)c(C(=O)O)c3)cc2S(=O)(=O)N1C [Example 455]
36 | 100 to 1000 nM | CC(C)C[C@@H]1CN(c2ccccc2)c2cc(OCc3cccnc3)c(-c3ccc(F)c(C(=O)O)c3)cc2S(=O)(=O)N1C [Example 456]
37 | 100 to 1000 nM | Cc1nnc(COc2cc3c(cc2-c2ccc(F)c(C(=O)O)c2)S(=O)(=O)N(C)[C@H](CC(C)C)CN3c2ccccc2)o1 [Example 457]
38 | < 100 nM | CC(C)C[C@@H]1CN(c2ccccc2)c2cc(OCc3cncs3)c(-c3ccc(F)c(C(=O)O)c3)cc2S(=O)(=O)N1C [Example 458]
39 | < 100 nM | CC(C)C[C@@H]1CN(c2ccccc2)c2cc(OCc3ccccn3)c(-c3ccc(F)c(C(=O)O)c3)cc2S(=O)(=O)N1C [Example 459]
40 | < 100 nM | CC(C)C[C@@H]1CN(c2ccccc2)c2cc(OCCc3cscn3)c(-c3ccc(F)c(C(=O)O)c3)cc2S(=O)(=O)N1C [Example 460]
41 | < 100 nM | CC(C)C[C@@H]1CN(c2ccccc2)c2cc(OCCc3ccoc3)c(-c3ccc(F)c(C(=O)O)c3)cc2S(=O)(=O)N1C [Example 461]
42 | < 100 nM | CC(C)C[C@@H]1CN(c2ccccc2)c2cc(OCc3cocn3)c(-c3ccc(F)c(C(=O)O)c3)cc2S(=O)(=O)N1C [Example 462]
43 | 100 to 1000 nM | CN1[C@H](C2CCC2)CN(c2ccccc2)c2cc(OCC(F)(F)F)c(-c3ccc(F)c(C(=O)O)c3)cc2S1(=O)=O [Example 464]
44 | 100 to 1000 nM | CN1[C@H](C2CCC2)CN(c2ccccc2)c2cc(OC(C)(C)C)c(-c3ccc(F)c(C(=O)O)c3)cc2S1(=O)=O [Example 465]
45 | 100 to 1000 nM | CC(C)C[C@@H]1CN(C2CC(F)(F)C2)c2cc(Oc3ccccc3F)c(-c3ccc(F)c(C(=O)O)c3)cc2S(=O)(=O)N1C [Example 466, (R)-5-(5-(3,3-difluorocyclobutyl)-7-(2-fluorophenoxy)-3-isobutyl-2-methyl-1,1-dioxido-2,3,4,5-tetrahydrobenzo[f][1,2,5]thiadiazepin-8-yl)-2-fluorobenzoic acid]
46 | 100 to 1000 nM | CC(C)C[C@@H]1CN(C2CC3(CCC3)C2)c2cc(Oc3ccccc3F)c(-c3ccc(F)c(C(=O)O)c3)cc2S(=O)(=O)N1C [Example 467]
47 | 100 to 1000 nM | CC(C)C[C@@H]1CN(C(C)C)c2cc(Oc3ccccc3F)c(-c3ccc(F)c(C(=O)O)c3)cc2S(=O)(=O)N1C [Example 468]
48 | 100 to 1000 nM | CC(C)C[C@@H]1CN(C23CC(C2)C3)c2cc(Oc3ccccc3F)c(-c3ccc(F)c(C(=O)O)c3)cc2S(=O)(=O)N1C [Example 469]
49 | 100 to 1000 nM | CC(C)C[C@@H]1CN([C@@H]2CCOC2)c2cc(Oc3ccccc3F)c(-c3ccc(F)c(C(=O)O)c3)cc2S(=O)(=O)N1C [Example 470]
50 | 100 to 1000 nM | CC(C)C[C@@H]1CN(C2CC2)c2cc(Oc3ccccc3F)c(-c3ccc(F)c(C(=O)O)c3)cc2S(=O)(=O)N1C [Example 471]
51 | 100 to 1000 nM | CO[C@H]1C[C@@H](N2C[C@@H](CC(C)C)N(C)S(=O)(=O)c3cc(-c4ccc(F)c(C(=O)O)c4)c(Oc4ccccc4F)cc32)C1 [Example 473]
52 | 100 to 1000 nM | CC(C)C[C@@H]1CN([C@H]2CCOC2)c2cc(Oc3ccccc3F)c(-c3ccc(F)c(C(=O)O)c3)cc2S(=O)(=O)N1C [Example 474]

— patent US20240368096A1 (Enanta Pharmaceuticals, Inc., priority 2022, published 2024)
